Earlier results in paper PMC7211198, “Phase 1b study of a small molecule antagonist of human chemokine (C-C motif) receptor 2 (PF-04136309) in combination with nab-paclitaxel/gemcitabine in first-line treatment of metastatic pancreatic ductal adenocarcinoma” (Investigational New Drugs, 2019).
Where two headings read alike, the source gives them in different places.

Tested on: advanced pancreatic cancer
Details: cited from earlier work

SMILES: Nc1ccn([C@@H]2O[C@H](CO)[C@@H](O)C2(F)F)c(=O)n1 [gemcitabine]
- Observed rate of pneumonitis (gemcitabine combined with nab-paclitaxel): up to 4%
- Observed rate of pneumonitis (patients treated with gemcitabine): approximately 1%
